Data on two compounds can be found in US11406600B2, “Anhydrous dasatinib-containing preparation” (SAWAI PHARMACEUTICAL CO., LTD., priority 2017, dated 2022).

Data set [1] is described as follows: Color change (ΔE) after light irradiation, spectral color contrast meter. The class given is physicochemical. As to conditions: irradiated with 10000 Lux./hr of light for 5 days; based on color tone immediately after manufacturing; mean of 5 tablets. How it is done:
Using a spectral color contrast meter (NIPPON DENSHOKU INDUSTRIES CO., LTD., Model: SE-6000), the color change ΔE value of the preparation irradiated with 10000Lux./hr of light for 5 days was measured based on the color tone of the preparation immediately after manufacturing, and the mean value of the measurement value of 5 tablets was calculated.
(§1) In the anhydrous dasatinib-containing tablet having the film-coating part, the amount of the film-coating part and the percentage of the titanium oxide in the film-coating part were varied, respectively, and the color change (ΔE) and the total related substances (%) of the preparations irradiated with 10000 Lux./hr of light for 5 days were determined, respectively.
For color change, the ΔE value of the amount of color change was measured using a spectral color contrast meter (NIPPON DENSHOKU INDUSTRIES CO., LTD., Model: SE-6000) based on the color tone of the drug product immediately after manufacturing, and the mean value of the measured value of 5 tablets was calculated.

Data set [2] is described as follows: Total related substances (%) by liquid chromatography after light irradiation. The following applies: irradiated with 10000 Lux./hr of light for 5 days; peak area ratio, LC, 230 nm. The format is physicochemical. On the procedure: In the description, the purities of the anhydrous dasatinib were evaluated using liquid chromatography as an assessment of the stability. The ratio of the peak area of related substances derived from the anhydrous dasatinib to that of the anhydrous dasatinib was calculated to determine the total related substances (%).
as §1
For the total related substances, the purities of the anhydrous dasatinib were evaluated using liquid chromatography as shown below. The ratio of the peak area of the related substances derived from the anhydrous dasatinib to that of the anhydrous dasatinib was calculated to determine the total related substances (%). Specifically, a column was octadecylsilated silica gels (particle size, 5 μm; column inner diameter, 4.6 mm; column length, 250 mm; GL Sciences), mobile phase A was 0.01 M aqueous potassium dihydrogen phosphate solution, mobile phase B was acetonitrile, and the detector was ultraviolet absorbance spectrophotometer (measured wavelength: 230 nm), respectively. […]

The conditions of data set [3]: 1.2 million Lux.·hr total illumination and 200 W·hr/m^2 total near-ultraviolet radiation energy; cited from earlier work.

Structures are written as SMILES.

For the compound `Cc1nc(Nc2ncc(C(=O)Nc3c(C)cccc3Cl)s2)cc(N2CCN(CCO)CC2)n1` [Comparative Example 1, anhydrous dasatinib], in data set [1], the “color change ΔE value” is 18.56. Further, the “total related substances (%)” value in data set [2] is listed as 0.51%.

For the compound `Cc1nc(Nc2ncc(C(=O)Nc3c(C)cccc3Cl)s2)cc(N2CCN(CCO)CC2)n1` [dasatinib hydrate], the “stability under light stress testing” value in data set [3] is “no changes were observed”.
